Source: patent publication US20100203576A1, “PROCESS FOR DETERMINATION OF MICROORGANISMS' RESISTANCE TO ANTIBIOTICS” (INTELLIGENCE ARTIFICIELLE APPLICATIONS, priority 2009, published 2010)

Each compound was assayed on Escherichia coli (assay: Antibiogram resistance of similar Escherichia coli strains recorded in the data base). Details: Escherichia coli species 1 to 4, similar between 98.5 to 83.6% to the urine specimen strain.
Format: cell-based
Parameters: key to Resistance, MO list in data base 1 / Resistance, MO list in data base 2 / Resistance, MO list in data base 3 / Resistance, MO list in data base 4: R: significant resistance; I: average resistance; S: without resistance
In the case of `CCN1CCN(C(=O)N[C@@H](C(=O)N[C@@H]2C(=O)N3[C@@H]2SC(C)(C)[C@@H]3C(=O)O)c2ccccc2)C(=O)C1=O` [PIPERACILLIN, piperacillin], the “Resistance of Escherichia coli species 1 to 4 (in words)” value (“Resistance … (in words)” for short) was “resistant”.
In the case of gentamicin, the “Resistance … (in words)” value was “not resistant”.
For `CC1(C)S[C@@H]2[C@H](NC(=O)[C@H](N)c3ccc(O)cc3)C(=O)N2[C@H]1C(=O)O` [AMOXICILLIN, amoxicillin], the “Resistance … (in words)” value was “resistant”.
`CC(=O)OCC1=C(C(=O)O)N2C(=O)[C@@H](NC(=O)Cc3cccs3)[C@H]2SC1` [CEPHALOTIN, cefalotin] was tested, and the “Resistance … (in words)” value was “resistant”.
In the case of `CO/N=C(\C(=O)N[C@@H]1C(=O)N2C(C(=O)O)=C(CSc3nc(=O)c(O)nn3C)CS[C@H]12)c1csc(N)n1` [CETRIAXONE, cetriaxone], the “Resistance … (in words)” value was “not resistant”.

Same assay, conditions: Escherichia coli strain 1, similarity 98.5%
In the case of `CCN1CCN(C(=O)N[C@@H](C(=O)N[C@@H]2C(=O)N3[C@@H]2SC(C)(C)[C@@H]3C(=O)O)c2ccccc2)C(=O)C1=O` [PIPERACILLIN, piperacillin], the “Resistance, MO list in data base 1” value was “R”.
With gentamicin the “Resistance, MO list in data base 1” value was “S”.
With `O=C(O)c1cn(C2CC2)c2cc(N3CCNCC3)c(F)cc2c1=O` [CIPROFLOXACIN] the “Resistance, MO list in data base 1” value was “R”.
With `CC1(C)S[C@@H]2[C@H](NC(=O)[C@H](N)c3ccc(O)cc3)C(=O)N2[C@H]1C(=O)O` [AMOXICILLIN, amoxicillin] the “Resistance, MO list in data base 1” value was “R”.
In the case of `CC(=O)OCC1=C(C(=O)O)N2C(=O)[C@@H](NC(=O)Cc3cccs3)[C@H]2SC1` [CEPHALOTIN, cefalotin], the “Resistance, MO list in data base 1” value was “R”.
In the case of `CO/N=C(\C(=O)N[C@@H]1C(=O)N2C(C(=O)O)=C(CSc3nc(=O)c(O)nn3C)CS[C@H]12)c1csc(N)n1` [CETRIAXONE, cetriaxone], the “Resistance, MO list in data base 1” value was “S”.

Same assay, conditions: Escherichia coli strain 2, similarity 97.8%
In the case of `CCN1CCN(C(=O)N[C@@H](C(=O)N[C@@H]2C(=O)N3[C@@H]2SC(C)(C)[C@@H]3C(=O)O)c2ccccc2)C(=O)C1=O` [PIPERACILLIN, piperacillin], the “Resistance, MO list in data base 2” value was “R”.
In the case of gentamicin, the “Resistance, MO list in data base 2” value was “S”.
For `O=C(O)c1cn(C2CC2)c2cc(N3CCNCC3)c(F)cc2c1=O` [CIPROFLOXACIN], the “Resistance, MO list in data base 2” value was “R”.
In the case of `CC1(C)S[C@@H]2[C@H](NC(=O)[C@H](N)c3ccc(O)cc3)C(=O)N2[C@H]1C(=O)O` [AMOXICILLIN, amoxicillin], the “Resistance, MO list in data base 2” value was “R”.
`CC(=O)OCC1=C(C(=O)O)N2C(=O)[C@@H](NC(=O)Cc3cccs3)[C@H]2SC1` [CEPHALOTIN, cefalotin] was tested, and the “Resistance, MO list in data base 2” value was “R”.
For `CO/N=C(\C(=O)N[C@@H]1C(=O)N2C(C(=O)O)=C(CSc3nc(=O)c(O)nn3C)CS[C@H]12)c1csc(N)n1` [CETRIAXONE, cetriaxone], the “Resistance, MO list in data base 2” value was “S”.

Same assay, conditions: Escherichia coli strain 3, similarity 84.2%
`CCN1CCN(C(=O)N[C@@H](C(=O)N[C@@H]2C(=O)N3[C@@H]2SC(C)(C)[C@@H]3C(=O)O)c2ccccc2)C(=O)C1=O` [PIPERACILLIN, piperacillin] was tested, and the “Resistance, MO list in data base 3” value was “R”.
With gentamicin the “Resistance, MO list in data base 3” value was “S”.
With `CC1(C)S[C@@H]2[C@H](NC(=O)[C@H](N)c3ccc(O)cc3)C(=O)N2[C@H]1C(=O)O` [AMOXICILLIN, amoxicillin] the “Resistance, MO list in data base 3” value was “R”.
`CC(=O)OCC1=C(C(=O)O)N2C(=O)[C@@H](NC(=O)Cc3cccs3)[C@H]2SC1` [CEPHALOTIN, cefalotin] was tested, and the “Resistance, MO list in data base 3” value was “R”.
`CO/N=C(\C(=O)N[C@@H]1C(=O)N2C(C(=O)O)=C(CSc3nc(=O)c(O)nn3C)CS[C@H]12)c1csc(N)n1` [CETRIAXONE, cetriaxone] was tested, and the “Resistance, MO list in data base 3” value was “S”.

Same assay, conditions: Escherichia coli strain 4, similarity 83.6%
`CCN1CCN(C(=O)N[C@@H](C(=O)N[C@@H]2C(=O)N3[C@@H]2SC(C)(C)[C@@H]3C(=O)O)c2ccccc2)C(=O)C1=O` [PIPERACILLIN, piperacillin] was tested, and the “Resistance, MO list in data base 4” value was “R”.
gentamicin was tested, and the “Resistance, MO list in data base 4” value was “S”.
With `O=C(O)c1cn(C2CC2)c2cc(N3CCNCC3)c(F)cc2c1=O` [CIPROFLOXACIN] the “Resistance, MO list in data base 4” value was “I”.
With `CC1(C)S[C@@H]2[C@H](NC(=O)[C@H](N)c3ccc(O)cc3)C(=O)N2[C@H]1C(=O)O` [AMOXICILLIN, amoxicillin] the “Resistance, MO list in data base 4” value was “R”.
`CC(=O)OCC1=C(C(=O)O)N2C(=O)[C@@H](NC(=O)Cc3cccs3)[C@H]2SC1` [CEPHALOTIN, cefalotin] was tested, and the “Resistance, MO list in data base 4” value was “R”.
For `CO/N=C(\C(=O)N[C@@H]1C(=O)N2C(C(=O)O)=C(CSc3nc(=O)c(O)nn3C)CS[C@H]12)c1csc(N)n1` [CETRIAXONE, cetriaxone], the “Resistance, MO list in data base 4” value was “S”.
